Measured values published in ChEMBL document CHEMBL1134973, “Modification of the pyridine moiety of non-peptidyl indole GnRH receptor antagonists” (Bioorg Med Chem Lett, 2002).

Legend:
[1] = biological target: T1, Gonadotropin-releasing hormone receptor (Homo sapiens, UniProt P30968); assay: Concentration required for the inhibition of phosphatidyl inositol hydrolysis in chinese hamster ovary cells expressing human GnRH receptor (Gonadotropin Release Hormone receptor); type: functional, cell-based
T1 sequence (P30968 whole entry): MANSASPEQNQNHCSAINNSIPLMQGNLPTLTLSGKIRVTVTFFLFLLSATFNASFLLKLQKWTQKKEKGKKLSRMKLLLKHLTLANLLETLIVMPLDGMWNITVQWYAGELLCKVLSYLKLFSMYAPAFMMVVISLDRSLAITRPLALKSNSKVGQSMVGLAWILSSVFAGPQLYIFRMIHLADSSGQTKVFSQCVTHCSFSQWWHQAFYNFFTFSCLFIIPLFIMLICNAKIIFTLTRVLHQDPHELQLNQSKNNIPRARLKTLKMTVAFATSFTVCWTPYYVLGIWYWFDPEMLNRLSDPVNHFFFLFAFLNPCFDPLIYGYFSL

[2] = biological target: T1, Gonadotropin-releasing hormone receptor; assay: Concentration required for the inhibition of I-125 labeled buserelin binding to the human Gonadotropin-releasing hormone receptor
[3] = Half-life of compound in plasma of dog was determined; type: ADME, organism-based, Canis lupus familiaris
[4] = Oral bioavailability in dog; type: ADME, organism-based, Canis lupus familiaris; conditions: in vivo
[5] = Half-life of compound was determined in rats; type: ADME, organism-based; conditions: rat, in vivo
[6] = Oral bioavailability of compound was determined in rats; type: ADME, organism-based; conditions: rat, in vivo
[7] = Half-life of compound was determined in dogs; type: ADME, organism-based, Canis lupus familiaris; conditions: dog, in vivo

Structure (SMILES) | IC50 [1] [nM] | IC50 [2] [nM] | half-life [3] [h] | bioavailability [4] [%] | half-life [5] [h] | bioavailability [6] [%] | half-life [7] [h]
COC(=O)c1cc(CCNC[C@@H](C)c2c(-c3cc(C)cc(C)c3)[nH]c3ccc(C(C)(C)C(=O)N4CC5CCC4CC5)cc23)ccn1 | 25 | 0.9 | – | – | – | – | –
Cc1cc(C)cc(-c2[nH]c3ccc(C(C)(C)C(=O)N4CC5CCC4CC5)cc3c2[C@H](C)CNCCc2cc[n+]([O-])cc2C)c1 | 26 | 0.8 | – | – | – | – | –
COCc1cc(CCNC[C@@H](C)c2c(-c3cc(C)cc(C)c3)[nH]c3ccc(C(C)(C)C(=O)N4CC5CCC4CC5)cc23)ccn1 | 55 | 0.7 | – | – | – | – | –
CCCc1cc(CCNC[C@@H](C)c2c(-c3cc(C)cc(C)c3)[nH]c3ccc(C(C)(C)C(=O)N4CC5CCC4CC5)cc23)ccn1 | 62 | 4.6 | – | – | – | – | –
Cc1cc(C)cc(-c2[nH]c3ccc(C(C)(C)C(=O)N4CC5CCC4CC5)cc3c2[C@H](C)CNCCc2ccnc(C(C)(C)O)c2)c1 | 106 | 0.7 | – | – | – | – | –
Cc1cc(C)cc(-c2[nH]c3ccc(C(C)(C)C(=O)N4CC5CCC4CC5)cc3c2[C@H](C)CNCCc2ccncc2C)c1 | 48 | 0.8 | – | – | – | – | –
Cc1cc(C)cc(-c2[nH]c3ccc(C(C)(C)C(=O)N4CC5CCC4CC5)cc3c2[C@H](C)CNCCc2cc(C)nc(C)c2)c1 | 24 | 0.4 | – | – | – | – | –
Cc1cc(C)cc(-c2[nH]c3ccc(C(C)(C)C(=O)N4CC5CCC4CC5)cc3c2[C@H](C)CNCCc2ccnc(C(C)O)c2)c1 (stereo partly specified) | 20 | 0.6 | – | – | – | – | –
Cc1cc(C)cc(-c2[nH]c3ccc(C(C)(C)C(=O)N4CC5CCC4CC5)cc3c2[C@H](C)CNCCc2ccnc(C(=O)O)c2)c1 | 371 | 8.2 | – | – | – | – | –
CC(=O)OCc1cc(CCNC[C@@H](C)c2c(-c3cc(C)cc(C)c3)[nH]c3ccc(C(C)(C)C(=O)N4CC5CCC4CC5)cc23)ccn1 | 22 | 0.4 | – | – | – | – | –

The next molecules have a lower IC50 [1] than those just listed; values first:

IC50 [1] [nM] | IC50 [2] [nM] | half-life [3] [h] | bioavailability [4] [%] | half-life [5] [h] | bioavailability [6] [%] | half-life [7] [h] | Structure (SMILES)
11 | 0.7 | – | – | – | – | – | Cc1cc(C)cc(-c2[nH]c3ccc(C(C)(C)C(=O)N4CC5CCC4CC5)cc3c2[C@H](C)CNCCc2ccnc(C#N)c2)c1
7.5 | 0.4 | 2 | 15 | – | – | – | Cc1cc(C)cc(-c2[nH]c3ccc(C(C)(C)C(=O)N4CC5CCC4CC5)cc3c2[C@H](C)CNCCc2ccnc(CO)c2)c1
6.4 | 0.3 | – | 14 | – | – | – | Cc1cc(C)cc(-c2[nH]c3ccc(C(C)(C)C(=O)N4CC5CCC4CC5)cc3c2[C@H](C)CNCCc2cc[n+]([O-])cc2)c1
12 | 0.6 | – | – | – | – | – | CC(=O)c1cc(CCNC[C@@H](C)c2c(-c3cc(C)cc(C)c3)[nH]c3ccc(C(C)(C)C(=O)N4CC5CCC4CC5)cc23)ccn1
5.9 | 0.3 | – | 25 | 2 | 23 | 5 | Cc1cc(C)cc(-c2[nH]c3ccc(C(C)(C)C(=O)N4CC5CCC4CC5)cc3c2[C@H](C)CNCCc2cc[n+]([O-])c(C)c2)c1
8.7 | 0.9 | – | 36 | – | – | – | Cc1cc(C)cc(-c2[nH]c3ccc(C(C)(C)C(=O)N4CC5CCC4CC5)cc3c2[C@H](C)CNCCc2ccnc(C)c2)c1
19 | 3.3 | – | – | – | – | – | CCc1cc(CCNC[C@@H](C)c2c(-c3cc(C)cc(C)c3)[nH]c3ccc(C(C)(C)C(=O)N4CC5CCC4CC5)cc23)ccn1
10 | 0.5 | – | 29 | – | – | 7 | Cc1cc(C)cc(-c2[nH]c3ccc(C(C)(C)C(=O)N4CC5CCC4CC5)cc3c2[C@H](C)CNCCc2cc(C)[n+]([O-])c(C)c2)c1
